Reference: the kinase profiling compilation of Christmann-Franck et al. (2016)

Legend:
Assay in all cases: radiometric filter-binding kinase assay, Kinase HotSpot
Details in all cases: compound 0.5 µM; ATP 10 µM
[1] = system: MAP2K6 (human), P52564 [S207E/T211E]
IRAK4 (human) = IRAK4 (human) (UniProt Q9NWZ3)
IKBKE (human) = IKBKE (human) (UniProt Q14164)
TSSK1B (human) = TSSK1B (human) (UniProt Q9BXA7)
MAP3K10 (human) = MAP3K10 (human) (UniProt Q02779)
CHEK1 (human) = CHEK1 (human) (UniProt O14757)
LTK (human) = LTK (human) (UniProt P29376)
STK16 (human) = STK16 (human) (UniProt O75716)
OXSR1 (human) = OXSR1 (human) (UniProt O95747)
Sequence of OXSR1 (human) (O95747 whole entry, looked up): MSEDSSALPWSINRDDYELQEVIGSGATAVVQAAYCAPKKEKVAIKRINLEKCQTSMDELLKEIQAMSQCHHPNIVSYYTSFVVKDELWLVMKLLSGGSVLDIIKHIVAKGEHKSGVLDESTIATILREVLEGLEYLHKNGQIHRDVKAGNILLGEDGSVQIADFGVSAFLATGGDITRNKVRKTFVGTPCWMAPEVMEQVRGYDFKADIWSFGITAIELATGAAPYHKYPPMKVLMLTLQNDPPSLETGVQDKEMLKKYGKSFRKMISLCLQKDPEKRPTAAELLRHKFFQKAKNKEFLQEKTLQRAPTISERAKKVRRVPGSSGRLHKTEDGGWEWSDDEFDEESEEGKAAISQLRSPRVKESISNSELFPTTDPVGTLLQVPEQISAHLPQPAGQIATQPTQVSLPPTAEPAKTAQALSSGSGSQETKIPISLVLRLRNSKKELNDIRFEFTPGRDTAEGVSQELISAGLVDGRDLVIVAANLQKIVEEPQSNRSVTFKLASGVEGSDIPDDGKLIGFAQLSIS

MAP3K14 (human) = MAP3K14 (human) (UniProt Q99558)
PTK2B (human) = PTK2B (human) (UniProt Q14289)
MAP2K1 (human) = MAP2K1 (human) (UniProt Q02750)
EPHB1 (human) = EPHB1 (human) (UniProt P54762)
PAK3 (human) = PAK3 (human) (UniProt O75914)
DDR2 (human) = DDR2 (human) (UniProt Q16832)
STK17A (human) = STK17A (human) (UniProt Q9UEE5)
Sequence of STK17A (human) (Q9UEE5 whole entry, looked up): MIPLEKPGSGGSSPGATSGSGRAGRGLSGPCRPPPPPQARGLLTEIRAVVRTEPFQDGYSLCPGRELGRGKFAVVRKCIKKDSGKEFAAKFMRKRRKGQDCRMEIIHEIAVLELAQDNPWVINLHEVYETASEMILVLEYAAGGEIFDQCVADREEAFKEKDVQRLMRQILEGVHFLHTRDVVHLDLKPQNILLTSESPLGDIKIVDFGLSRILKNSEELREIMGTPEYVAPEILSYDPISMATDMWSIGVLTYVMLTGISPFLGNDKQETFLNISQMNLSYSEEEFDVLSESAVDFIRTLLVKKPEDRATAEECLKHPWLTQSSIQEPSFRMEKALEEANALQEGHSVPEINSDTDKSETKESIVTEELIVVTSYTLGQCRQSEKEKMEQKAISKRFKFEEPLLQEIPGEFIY

PAK6 (human) = PAK6 (human) (UniProt Q9NQU5)
DYRK3 (human) = DYRK3 (human) (UniProt O43781)
MAPK11 (human) = MAPK11 (human) (UniProt Q15759)
RPS6KB1 (human) = RPS6KB1 (human) (UniProt P23443)
MUSK (human) = MUSK (human) (UniProt O15146)
PLK2 (human) = PLK2 (human) (UniProt Q9NYY3)
CLK2 (human) = CLK2 (human) (UniProt P49760)
ROCK1 (human) = ROCK1 (human) (UniProt Q13464)
ROCK2 (human) = ROCK2 (human) (UniProt O75116)
BLK (human) = BLK (human) (UniProt P51451)
BRSK2 (human) = BRSK2 (human) (UniProt Q8IWQ3)
MAP2K2 (human) = MAP2K2 (human) (UniProt P36507)
ALK (human) = ALK (human) (UniProt Q9UM73)
CDK4 CCND1 (human) = CDK4 CCND1 (human) (UniProt P24385+P11802)
PRKCI (human) = PRKCI (human) (UniProt P41743)
HIPK1 (human) = HIPK1 (human) (UniProt Q86Z02)
Sequence of HIPK1 (human) (Q86Z02 whole entry, looked up): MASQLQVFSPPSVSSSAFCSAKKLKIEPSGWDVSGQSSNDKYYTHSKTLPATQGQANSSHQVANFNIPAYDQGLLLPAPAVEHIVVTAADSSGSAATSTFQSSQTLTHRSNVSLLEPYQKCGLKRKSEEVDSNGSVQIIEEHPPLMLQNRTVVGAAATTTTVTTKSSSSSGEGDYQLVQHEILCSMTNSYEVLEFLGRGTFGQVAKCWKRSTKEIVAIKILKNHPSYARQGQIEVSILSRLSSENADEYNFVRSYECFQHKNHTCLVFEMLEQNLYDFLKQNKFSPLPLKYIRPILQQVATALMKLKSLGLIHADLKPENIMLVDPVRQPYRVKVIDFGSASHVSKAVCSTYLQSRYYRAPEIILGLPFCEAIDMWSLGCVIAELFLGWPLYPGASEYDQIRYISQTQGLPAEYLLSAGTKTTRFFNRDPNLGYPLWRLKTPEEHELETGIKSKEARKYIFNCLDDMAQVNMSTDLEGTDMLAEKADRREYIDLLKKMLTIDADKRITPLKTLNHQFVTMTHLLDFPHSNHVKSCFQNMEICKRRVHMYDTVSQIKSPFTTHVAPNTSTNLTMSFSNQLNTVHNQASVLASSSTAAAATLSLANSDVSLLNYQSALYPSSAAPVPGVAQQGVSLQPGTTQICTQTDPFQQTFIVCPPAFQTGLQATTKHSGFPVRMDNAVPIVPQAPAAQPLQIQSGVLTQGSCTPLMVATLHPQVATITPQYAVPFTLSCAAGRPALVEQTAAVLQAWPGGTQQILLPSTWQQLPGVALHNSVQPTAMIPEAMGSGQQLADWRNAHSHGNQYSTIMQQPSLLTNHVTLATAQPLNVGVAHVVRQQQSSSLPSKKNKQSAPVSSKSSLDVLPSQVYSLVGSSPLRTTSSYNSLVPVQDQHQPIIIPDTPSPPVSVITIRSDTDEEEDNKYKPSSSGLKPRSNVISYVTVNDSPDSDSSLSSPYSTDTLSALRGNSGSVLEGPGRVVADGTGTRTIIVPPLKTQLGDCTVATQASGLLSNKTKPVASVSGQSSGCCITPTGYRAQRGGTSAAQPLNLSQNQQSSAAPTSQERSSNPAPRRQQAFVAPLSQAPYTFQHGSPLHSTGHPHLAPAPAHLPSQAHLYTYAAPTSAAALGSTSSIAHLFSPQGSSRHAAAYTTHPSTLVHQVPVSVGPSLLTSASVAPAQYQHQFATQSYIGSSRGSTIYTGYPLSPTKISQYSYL

CSNK1E (human) = CSNK1E (human) (UniProt P49674)
CAMK1 (human) = CAMK1 (human) (UniProt Q14012)
STK4 (human) = STK4 (human) (UniProt Q13043)
ADRBK1 (human) = ADRBK1 (human) (UniProt P25098)
Sequence of ADRBK1 (human) (P25098 whole entry, looked up): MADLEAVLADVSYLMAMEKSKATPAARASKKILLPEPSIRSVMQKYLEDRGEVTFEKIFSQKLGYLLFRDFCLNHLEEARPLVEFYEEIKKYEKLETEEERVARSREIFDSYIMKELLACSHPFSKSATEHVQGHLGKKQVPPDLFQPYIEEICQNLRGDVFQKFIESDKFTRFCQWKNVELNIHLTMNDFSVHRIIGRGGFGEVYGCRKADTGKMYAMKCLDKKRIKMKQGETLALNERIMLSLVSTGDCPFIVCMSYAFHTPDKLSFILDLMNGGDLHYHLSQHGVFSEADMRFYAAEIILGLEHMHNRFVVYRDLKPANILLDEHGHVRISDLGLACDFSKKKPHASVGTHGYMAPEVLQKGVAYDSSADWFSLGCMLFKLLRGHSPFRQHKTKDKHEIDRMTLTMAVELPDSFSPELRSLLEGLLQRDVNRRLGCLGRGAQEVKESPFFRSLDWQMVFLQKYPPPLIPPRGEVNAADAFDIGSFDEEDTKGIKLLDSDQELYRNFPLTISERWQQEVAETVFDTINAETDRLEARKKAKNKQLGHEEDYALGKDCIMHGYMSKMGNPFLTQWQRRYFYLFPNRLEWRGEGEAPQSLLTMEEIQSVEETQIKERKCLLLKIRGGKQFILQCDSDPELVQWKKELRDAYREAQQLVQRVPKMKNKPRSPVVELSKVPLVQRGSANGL

AKT3 (human) = AKT3 (human) (UniProt Q9Y243)
PRKD3 (human) = PRKD3 (human) (UniProt O94806)
SIK2 (human) = SIK2 (human) (UniProt Q9H0K1)
SRC (human) = SRC (human) (UniProt P12931)
Sequence of SRC (human) (P12931 whole entry, looked up): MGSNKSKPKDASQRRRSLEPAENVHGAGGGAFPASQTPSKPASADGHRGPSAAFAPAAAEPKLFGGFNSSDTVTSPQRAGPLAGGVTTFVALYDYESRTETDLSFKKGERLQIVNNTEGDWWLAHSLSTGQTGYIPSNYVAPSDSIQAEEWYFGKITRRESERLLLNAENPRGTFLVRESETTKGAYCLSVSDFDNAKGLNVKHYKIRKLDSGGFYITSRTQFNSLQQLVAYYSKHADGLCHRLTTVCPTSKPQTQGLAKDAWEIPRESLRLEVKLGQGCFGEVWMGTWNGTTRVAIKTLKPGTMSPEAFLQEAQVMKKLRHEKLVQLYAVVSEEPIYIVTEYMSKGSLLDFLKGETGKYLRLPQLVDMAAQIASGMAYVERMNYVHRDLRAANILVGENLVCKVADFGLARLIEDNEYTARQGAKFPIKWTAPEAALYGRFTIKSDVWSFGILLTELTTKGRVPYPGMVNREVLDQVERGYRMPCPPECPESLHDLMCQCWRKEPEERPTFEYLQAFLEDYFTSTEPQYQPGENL

MAP3K8 (human) = MAP3K8 (human) (UniProt P41279)
CSNK1G1 (human) = CSNK1G1 (human) (UniProt Q9HCP0)

Sequence of TSSK1B (human) (Q9BXA7 whole entry, looked up): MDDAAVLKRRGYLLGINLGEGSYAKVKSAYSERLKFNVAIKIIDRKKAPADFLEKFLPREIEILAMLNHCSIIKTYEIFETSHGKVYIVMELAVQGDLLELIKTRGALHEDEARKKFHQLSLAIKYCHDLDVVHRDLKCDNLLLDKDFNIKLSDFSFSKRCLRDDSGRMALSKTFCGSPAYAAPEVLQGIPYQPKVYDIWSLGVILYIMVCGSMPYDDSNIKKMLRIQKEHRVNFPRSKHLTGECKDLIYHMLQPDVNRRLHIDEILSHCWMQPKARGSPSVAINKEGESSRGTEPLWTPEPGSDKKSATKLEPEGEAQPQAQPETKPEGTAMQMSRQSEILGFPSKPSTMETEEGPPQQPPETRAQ
Sequence of MAP3K10 (human) (Q02779 whole entry, looked up): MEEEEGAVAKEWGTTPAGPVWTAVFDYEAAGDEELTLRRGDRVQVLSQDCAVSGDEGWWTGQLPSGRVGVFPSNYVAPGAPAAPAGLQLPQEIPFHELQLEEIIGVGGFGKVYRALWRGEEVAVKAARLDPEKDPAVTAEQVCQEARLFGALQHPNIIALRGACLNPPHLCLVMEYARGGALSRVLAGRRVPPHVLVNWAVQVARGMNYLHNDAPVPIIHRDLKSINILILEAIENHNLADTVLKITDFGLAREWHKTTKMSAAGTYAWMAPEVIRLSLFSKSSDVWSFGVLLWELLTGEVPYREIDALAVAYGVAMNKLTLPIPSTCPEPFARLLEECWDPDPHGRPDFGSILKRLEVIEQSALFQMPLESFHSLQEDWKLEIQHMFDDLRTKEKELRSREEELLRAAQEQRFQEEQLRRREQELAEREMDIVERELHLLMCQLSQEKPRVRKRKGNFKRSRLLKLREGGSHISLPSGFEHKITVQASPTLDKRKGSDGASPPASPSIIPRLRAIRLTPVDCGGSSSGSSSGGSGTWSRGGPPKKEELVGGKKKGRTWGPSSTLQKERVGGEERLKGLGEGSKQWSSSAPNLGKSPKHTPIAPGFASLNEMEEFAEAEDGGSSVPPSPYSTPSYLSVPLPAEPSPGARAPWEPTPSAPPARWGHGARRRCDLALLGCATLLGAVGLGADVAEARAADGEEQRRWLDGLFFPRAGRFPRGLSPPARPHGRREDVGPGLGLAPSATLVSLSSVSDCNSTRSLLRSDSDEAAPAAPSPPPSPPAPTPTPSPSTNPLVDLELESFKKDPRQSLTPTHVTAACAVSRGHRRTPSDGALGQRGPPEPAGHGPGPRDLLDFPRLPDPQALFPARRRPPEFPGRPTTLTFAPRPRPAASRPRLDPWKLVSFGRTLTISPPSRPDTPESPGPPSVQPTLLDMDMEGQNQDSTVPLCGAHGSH
Sequence of MAP2K6 (human), P52564 [S207E/T211E] (P52564 whole entry S207E/T211E, looked up): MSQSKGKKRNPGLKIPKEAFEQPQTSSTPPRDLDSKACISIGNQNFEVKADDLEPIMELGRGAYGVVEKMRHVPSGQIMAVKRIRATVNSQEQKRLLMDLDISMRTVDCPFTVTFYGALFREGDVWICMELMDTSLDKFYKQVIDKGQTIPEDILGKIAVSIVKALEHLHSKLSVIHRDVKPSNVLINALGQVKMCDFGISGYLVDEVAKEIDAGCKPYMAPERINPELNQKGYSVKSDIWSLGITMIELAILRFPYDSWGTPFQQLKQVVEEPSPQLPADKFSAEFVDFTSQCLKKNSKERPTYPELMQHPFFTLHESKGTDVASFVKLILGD

COc1cc2ncnc(Nc3ccc(OCc4ccccc4)cc3)c2cc1OC
residual activity [1]: 109%
residual activity (IRAK4 (human)): 119%
residual activity (IKBKE (human)): 99.7%
residual activity (TSSK1B (human)): 106%
residual activity (MAP3K10 (human)): 94.9%
residual activity (CHEK1 (human)): 101%
residual activity (LTK (human)): 98.6%
residual activity (STK16 (human)): 106%
residual activity (OXSR1 (human)): 110%
residual activity (MAP3K14 (human)): 84.4%
residual activity (PTK2B (human)): 99.8%
residual activity (MAP2K1 (human)): 94.7%
residual activity (EPHB1 (human)): 101%
residual activity (PAK3 (human)): 97.7%
residual activity (DDR2 (human)): 100%
residual activity (STK17A (human)): 99.6%
residual activity (PAK6 (human)): 95.4%
residual activity (DYRK3 (human)): 101%
residual activity (MAPK11 (human)): 96.9%
residual activity (RPS6KB1 (human)): 95.1%
residual activity (MUSK (human)): 99.3%
residual activity (PLK2 (human)): 109%
residual activity (CLK2 (human)): 102%
residual activity (ROCK1 (human)): 96.6%
residual activity (ROCK2 (human)): 96%
residual activity (BLK (human)): 88.2%
residual activity (BRSK2 (human)): 98.7%
residual activity (MAP2K2 (human)): 98.5%
residual activity (ALK (human)): 103%
residual activity (CDK4 CCND1 (human)): 99.2%
residual activity (PRKCI (human)): 101%
residual activity (HIPK1 (human)): 104%
residual activity (CSNK1E (human)): 98.4%
residual activity (CAMK1 (human)): 98.4%
residual activity (STK4 (human)): 101%
residual activity (ADRBK1 (human)): 101%
residual activity (AKT3 (human)): 103%
residual activity (PRKD3 (human)): 95.3%
residual activity (SIK2 (human)): 73.7%
residual activity (SRC (human)): 102%
residual activity (MAP3K8 (human)): 90.1%
residual activity (CSNK1G1 (human)): 90.6%

CN(C)CCCn1cc(C2=C(c3c[nH]c4ccccc34)C(=O)NC2=O)c2ccccc21
residual activity [1]: 97.4%
residual activity (IRAK4 (human)): 135%
residual activity (IKBKE (human)): 89.4%
residual activity (TSSK1B (human)): 89.8%
residual activity (MAP3K10 (human)): 81.8%
residual activity (CHEK1 (human)): 39.1%
residual activity (LTK (human)): 99.5%
residual activity (STK16 (human)): 80.8%
residual activity (OXSR1 (human)): 97.4%
residual activity (MAP3K14 (human)): 110%
residual activity (PTK2B (human)): 98.5%
residual activity (MAP2K1 (human)): 83.6%
residual activity (EPHB1 (human)): 87.4%
residual activity (PAK3 (human)): 92.1%
residual activity (DDR2 (human)): 111%
residual activity (STK17A (human)): 86.9%
residual activity (PAK6 (human)): 101%
residual activity (DYRK3 (human)): 97.9%
residual activity (MAPK11 (human)): 96.1%
residual activity (RPS6KB1 (human)): 11.6%
residual activity (MUSK (human)): 71.9%
residual activity (PLK2 (human)): 97.3%
residual activity (CLK2 (human)): 28%
residual activity (ROCK1 (human)): 92.3%
residual activity (ROCK2 (human)): 113%
residual activity (BLK (human)): 87%
residual activity (BRSK2 (human)): 55.6%
residual activity (MAP2K2 (human)): 98.9%
residual activity (ALK (human)): 87%
residual activity (CDK4 CCND1 (human)): 60.7%
residual activity (PRKCI (human)): 55.9%
residual activity (HIPK1 (human)): 96.6%
residual activity (CSNK1E (human)): 96.3%
residual activity (CAMK1 (human)): 82.7%
residual activity (STK4 (human)): 25.1%
residual activity (ADRBK1 (human)): 96.5%
residual activity (AKT3 (human)): 31.5%
residual activity (PRKD3 (human)): 54.6%
residual activity (SIK2 (human)): 94.7%
residual activity (SRC (human)): 92.6%
residual activity (MAP3K8 (human)): 93.9%
residual activity (CSNK1G1 (human)): 99.1%

COc1ccc(Cl)cc1NC(=O)Nc1cc(C)nc2ccccc12
residual activity [1]: 89.9%
residual activity (IRAK4 (human)): 99.9%
residual activity (IKBKE (human)): 107%
residual activity (TSSK1B (human)): 94.6%
residual activity (MAP3K10 (human)): 94.9%
residual activity (CHEK1 (human)): 96.6%
residual activity (LTK (human)): 87.3%
residual activity (STK16 (human)): 105%
residual activity (OXSR1 (human)): 101%
residual activity (MAP3K14 (human)): 84.9%
residual activity (PTK2B (human)): 88.9%
residual activity (MAP2K1 (human)): 101%
residual activity (EPHB1 (human)): 102%
residual activity (PAK3 (human)): 98.9%
residual activity (DDR2 (human)): 97.7%
residual activity (STK17A (human)): 98.1%
residual activity (PAK6 (human)): 96.5%
residual activity (DYRK3 (human)): 106%
residual activity (MAPK11 (human)): 92%
residual activity (RPS6KB1 (human)): 96%
residual activity (MUSK (human)): 93.3%
residual activity (PLK2 (human)): 102%
residual activity (CLK2 (human)): 97.7%
residual activity (ROCK1 (human)): 100%
residual activity (ROCK2 (human)): 96.7%
residual activity (BLK (human)): 99.8%
residual activity (BRSK2 (human)): 95.2%
residual activity (MAP2K2 (human)): 94.1%
residual activity (ALK (human)): 99.2%
residual activity (CDK4 CCND1 (human)): 98.8%
residual activity (PRKCI (human)): 99.4%
residual activity (HIPK1 (human)): 97.2%
residual activity (CSNK1E (human)): 86.4%
residual activity (CAMK1 (human)): 91.7%
residual activity (STK4 (human)): 98.7%
residual activity (ADRBK1 (human)): 100%
residual activity (AKT3 (human)): 103%
residual activity (PRKD3 (human)): 97.1%
residual activity (SIK2 (human)): 87.8%
residual activity (SRC (human)): 99%
residual activity (MAP3K8 (human)): 99.5%
residual activity (CSNK1G1 (human)): 97.9%
